Test results taken from patent US20060228395A1, “Vitamin E phosphate/phosphatidylcholine liposomes to protect from or ameliorate cell damage” (priority 2005, published 2006).

What was measured:
Liver cells [1] = assay: Phosphatidylcholine formation in liver cells dysfunctional due to ethanol exposure; assay type: cell-based
Protocol: Liver cells which had become dysfunctional due to exposure to ethanol were incubated 24 hours with vitamin E phosphate/phosphatidylcholine liposomes. The pmoles of phosphatidylcholine formed per minute/mg protein was then measured with the following results: […]

cultured liver cells = assay: Reversal of ethanol damage in cultured liver cells (phosphatidylcholine biosynthesis); assay type: cell-based; settings: 96 h, ± SEM
Protocol: The use of vitamin E phosphate/phosphatidylcholine to effect reversal of damage from ethanol on liver cells was then studied. The cultured liver cells were incubated with 25 mM or 50 mM ethanol for 96 hours, at which time there is significant reduction in liver cell function (phosphatidylcholine biosynthesis). The effect of adding vitamin E phosphate/phosphatidylcholine after 72 hours was studied, and 24 hours later (96 hours after initial exposure to ethanol) values were obtained.

[2] = tested on: isolated liver cells (1000×g cell fraction); assay: Iron-dependent liver cell lipid peroxidation (LCLP); assay type: cell-based; settings: SEM
Liver cells [3] = assay: Incorporation of labeled choline into phosphatidylcholine (PC biosynthesis) by liver cells with iron; assay type: cell-based; settings: SEM
Excerpt: The study of effects oil liver cells was also considered based on evaluation of effect on increase in the incorporation of labeled choline into phosphatidylcholine (phosphatidylcholine biosynthesis) by liver cells. Vitamin E phosphate/phosphatidylcholine produced greater beneficial effects than either vitamin E phosphate or phosphatidylcholine.

male albino mice = assay: Allyl alcohol-induced liver injury in male albino mice (SGPT); assay type: in vivo; settings: allyl alcohol alone, single intraperitoneal dose 50 mg/kg, 4 hours; ± SEM
Protocol: Influence of vitamin E phosphate/phosphatidylcholine liposomes (see example 1) on Allyl alcohol-induced liver injury was evaluated in male albino mice.

[4] = 1 mM iron plus addition: PC 100 μM, VEP 50 μm, or combination VEP/PC

**Q.** For `CCO` [ethanol], which phosphatidylcholine formed (Liver cells [1]; cells exposed to ethanol (control 75)) is on record?
**A.** Its phosphatidylcholine formed is 25 pmoles per minute/mg protein.

**Q.** What about the phosphatidylcholine formed (Liver cells [1]; cells exposed to ethanol, then incubated 24 hours in water) of the same compound?
**A.** Its phosphatidylcholine formed is 27 pmoles per minute/mg protein.

**Q.** And the “liver cell function (phosphatidylcholine biosynthesis)” value (cultured liver cells; 25 mM ethanol alone)?
**A.** Its value is 38 ± 2 % control.

**Q.** And the “liver cell function (phosphatidylcholine biosynthesis)” value (cultured liver cells; 50 mM ethanol alone)?
**A.** Its value is 22 ± 1 % control.

**Q.** Which results are given for `[Fe]` [iron]?
**A.** LCLP (liver cell lipid peroxidation) ([2]; 1 mM iron alone): 357 ± 12 % control; PC biosynthesis (Liver cells [3]; 1 mM iron alone): 254 ± 9 % control

**Q.** How did the SGPT (male albino mice) turn out when `C=CCO` [Allyl alcohol] was run?
**A.** Its SGPT is 330 ± 15 % of control.

**Q.** What does the source list for phosphatidylcholine [PC]?
**A.** LCLP (liver cell lipid peroxidation) [2, 4]: 281 ± 4 % control; PC biosynthesis (Liver cells [3]; [4]): 167 ± 4 % control

**Q.** How did the “LCLP (liver cell lipid peroxidation)” value [2, 4] turn out when `Cc1c(C)c2c(c(C)c1OP(=O)(O)O)CCC(C)(CCCC(C)CCCC(C)CCCC(C)C)O2` (centres unmarked) [VEP, vitamin E phosphate] was run?
**A.** The value was 167 ± 3 % control.

**Q.** What about the PC biosynthesis (Liver cells [3]; [4]) of the same compound?
**A.** The PC biosynthesis was 145 ± 4 % control.
